This note sets out measurements from US20220054477A1, “INDUCTION OF SUSTAINED LOCAL INFLAMMATION” (Ascendis Pharma Oncology Division A/S, priority 2019, published 2022).

What all share (type): in vivo, BALB/C mice
The test system of test [1] is CD8+ T cells. The experiment in a line: Flow cytometry of tumor draining lymph nodes: frequency of CD8+ T cells of CD3+ T cells (Example 15). To be noted: 7 days after randomization. On the procedure:
(§1) Hydrogels were administered as suspension in PTP buffer. Some cohorts were further treated with 20 μg human IL-2 (Peprotech, Rocky Hill, N.J.), intraperitoneally (I.P.), twice a day for 5 days. Mice were sacrificed 7 days after randomization (D0). Following sacrifice, tumor draining lymph nodes were isolated from both flanks and were dissociated mechanically to generate a single cell suspension at a cell concentration of 1×10^6 cells per sample. Cell suspensions were centrifuged at 300 g for 5 minutes. Supernatants were discarded and cells were resuspended in FACS buffer with 1 μg/ml Fc-Block and incubated at 4° C. for 10 minutes in the dark. Surface marker antibody mixtures (antibody concentration: 10 μg/mL) in FACS buffer were added to each sample and samples were incubated in the dark at 4° C. for 30 minutes. Cells were centrifuged at 300 g for 5 minutes and supernatants were discarded. Cells were washed and then resuspended with FACS buffer before cytometer collection.
(§2) After collection, FACS data was analyzed using FlowJo Version 10.6.1. Compensation was digitally adjusted using single antibody-stained beads. Samples with less than 90% viability, as determined by LiveDead cell staining, were excluded from the analysis. […]
(In flow cytometry, cells or beads pass a laser one at a time.)

For test [2], the system named is Ccl2. The experiment in a line: PBMC gene expression (qPCR, 6 hours post-treatment): Ccl2 (Example 17). As for the experimental part: (§3) Hydrogels were administered as suspensions in PTP buffer. […] Tumors were excised, weighed and snap frozen.
(§4) For PBMC isolations, approximately 600 μl of whole blood was collected via cardiac puncture. The collected whole blood from each individual mouse was diluted with a 1:1 ratio of pre-warmed PBS supplemented with 2% Fetal Bovine Serum (FBS). Then an equal volume of Histopaque-1083 was added to a new sterile 15 mL conical tube, where the diluted whole blood was layered over the Histopaque-1083. The mixture was then centrifuged at 400 g for 30 minutes. […]
(§5) Lysates from untreated control samples and 6 hour treated samples were thawed and RNA was isolated using the RNeasy Mini Kit (QIAGEN) following manufacturer's recommendations. […] RNA concentrations were measured using a NanoDrop (ThermoFisher) and then adjusted to […] with RNase-free water. RNA quality was assessed using a NanoDrop (ThermoFisher). […] 200 ng of cDNA was used for quantitative PCR using the RT^2 SYBR Green ROX qPCR Master mix (2×) kit (QIAGEN) following manufacturer's recommendations. […]
(§6) Cycle thresholds (CT) were collected using a 384-well platform ABI-7900H real-time qPCR system (Applied Biosystems). […] 2^ΔΔCT values were calculated with the following formula: […]
(§7) For each gene, 3 technical replicates were analyzed per biological replicate. Undetermined technical replicate CT values were recorded as zero ΔCT values. […]
(Quantitative PCR measures a nucleic acid by following its amplification.)

Test [3] relates to Ly-6C+ MHCII+ antigen presenting cells. The experiment in a line: Flow cytometry of tumor draining lymph nodes: frequency of IA-IE (MHCII)+ antigen presenting cells of Ly-6C+ antigen presenting cells (Example 15). To be noted: 7 days after randomization. On the procedure:
as §1, §2

Test [4] deals with Il10. The experiment in a line: PBMC gene expression (qPCR, 6 hours post-treatment): Il10 (Example 17). As for the experimental part: as §3, §4, §5, §6, §7
The test system of test [5] is Il1a. The test can be described thus: PBMC gene expression (qPCR, 6 hours post-treatment): Il1a (Example 17). As for the experimental part: as §3, §4, §5, §6, §7
Test [6] deals with Ly-6C+ CD8+ T cells. The experiment in a line: Flow cytometry of tumor draining lymph nodes: frequency of Ly-6C+ T cells of CD8+ T cells (Example 15). The settings on record: 7 days after randomization. On the procedure: as §1, §2
For test [7], the system named is Ly-6C+ antigen presenting cells. The test can be described thus: Flow cytometry of tumor draining lymph nodes: frequency of Ly-6C+ antigen presenting cells of non-T cells (Example 15). To be noted: 7 days after randomization. On the procedure:
as §1, §2

The subject of test [8] is Cxcl2. The experiment in a line: PBMC gene expression (qPCR, 6 hours post-treatment): Cxcl2 (Example 17). As for the experimental part:
as §3, §4, §5, §6, §7

Marks after values point to notes of the source that are not given here.

Resiquimod [Compound 4]: the “Frequency of CD8+ T cells of CD3+ T cells, Mean” value in test [1] (injected right flank tumor) worked out at 29.23%; in test [1] (uninjected left flank tumor) it was 29%. Further, the “Ccl2 Mean (2^ΔΔCT)” value in test [2] was 6.75. Further, in test [2] (ratio of 4 to 13i), the “Ccl2 Fold change (4/13i)” value came out at 2.82. Further, the “Frequency of IA-IE (MHCII)+ antigen presenting cells of Ly-6C+ antigen presenting cells, Mean” value was 69.63% in test [3] (injected right flank tumor) and 35.05% in test [3] (uninjected left flank tumor). Further, the “Il10 Mean (2^ΔΔCT)” value in test [4] is given as 2.77†. Moreover, the “Il10 Fold change (4/13i)” value in test [4] (ratio of 4 to 13i) was determined as 2.29. The “Il1a Mean (2^ΔΔCT)” value in test [5] is listed as 0.41. The “Il1a Fold change (4/13i)” value in test [5] (ratio of 4 to 13i) turned out to be 1.78. For the same substance, the “Frequency of Ly-6C+ T cells of CD8+ T cells, Mean” value in test [6] (injected right flank tumor) is 53.7%; in test [6] (uninjected left flank tumor) it was 48%. Besides, the “Frequency of Ly-6C+ antigen presenting cells of non-T cells, Mean” value in test [7] (injected right flank tumor) is given as 2.5%; in test [7] (uninjected left flank tumor), 7.8%. Further, the “Cxcl2 Mean (2^ΔΔCT)” value in test [8] was found to be 35.37. For the same substance, the “Cxcl2 Fold change (4/13i)” value in test [8] (ratio of 4 to 13i) came to 6.43.
